Data: paper PMC13393665, “Structure-based virtual screening identifies potential endogenous ligands of the human bitter taste receptor TAS2R46” (The Journal of Biological Chemistry, 2026)
Where two headings read alike, the source gives them in different places.

Assays:
Test in all cases: Clytin II luminescence calcium assay, HEK293
Type in all cases: cell-based
[1] = target: T1, TAS2R46 (hTAS2R46) (Homo sapiens, UniProt P59540)
T1 construct: full-length TAS2R46 with first 45 amino acids of SST3 fused at N-terminus; pEF-DEST51; transient in HEK293 with G-alpha16-gust44 and mitochondrial Clytin II
T1 sequence (P59540 1-309): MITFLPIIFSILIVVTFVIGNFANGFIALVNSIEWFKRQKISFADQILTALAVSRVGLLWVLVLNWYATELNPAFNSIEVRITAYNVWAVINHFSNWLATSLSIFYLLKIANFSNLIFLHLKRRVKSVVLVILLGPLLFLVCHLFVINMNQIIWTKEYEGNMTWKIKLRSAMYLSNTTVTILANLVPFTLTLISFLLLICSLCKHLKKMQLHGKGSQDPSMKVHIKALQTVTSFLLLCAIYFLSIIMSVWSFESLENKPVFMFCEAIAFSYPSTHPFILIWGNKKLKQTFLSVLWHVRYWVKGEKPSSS

[2] = target: T1, TAS2R46 (hTAS2R46); conditions: agonist; G-alpha16-gust44 co-expressed; HBSS, 10 mM HEPES pH 7.4
[3] = target: T1, TAS2R46 (hTAS2R46); conditions: agonist; G-alpha16-gust44 co-expressed; HBSS, 10 mM HEPES pH 7.4; remark: listed apart in the source

CC(=O)[C@@]1(O)CC[C@H]2[C@@H]3CCC4=CC(=O)CC[C@]4(C)[C@H]3CC[C@@]21C [17-hydroxyprogesterone]
EC50 ([1]; read-out: EC50): 3.8 µM

C[C@]12CCC(=O)C=C1CC[C@@H]1[C@@H]2[C@@H](O)C[C@@]2(C)[C@H]1CC[C@]2(O)C(=O)CO [cortisol]
threshold [2]: cortisol and corticosterone showed lower potency than their metabolic intermediates, deoxycorticosterone and cortexolone, respectively

C[C@]12CC[C@H]3[C@@H](CCC4=CC(=O)CC[C@@]43C)[C@@H]1CC[C@@H]2O [testosterone]
EC50 [1]: 11.7 µM

C[C@]12CCC(=O)C=C1CC[C@@H]1[C@@H]2CC[C@]2(C)C(=O)CC[C@@H]12 [androstenedione]
threshold [2]: All candidate compounds, except estrone, elicited concentration-dependent responses in TAS2R46-expressing HEK293 cells

C[C@]12CC[C@@H]3c4ccc(O)cc4CC[C@H]3[C@@H]1CCC2=O [estrone]
Clytin II luminescence calcium assay, HEK293 [3]: All candidate compounds, except estrone, elicited concentration-dependent responses

C[C@]12C[C@H](O)[C@H]3[C@@H](CCC4=CC(=O)CC[C@@]43C)[C@@H]1CC[C@@H]2C(=O)CO [corticosterone]
threshold [2]: cortisol and corticosterone showed lower potency than their metabolic intermediates, deoxycorticosterone and cortexolone, respectively

C[C@]12CCC(=O)C[C@@H]1CC[C@@H]1[C@@H]2CC[C@]2(C)[C@@H](O)CC[C@@H]12 [dihydrotestosterone]
threshold [2]: All candidate compounds, except estrone, elicited concentration-dependent responses in TAS2R46-expressing HEK293 cells

C[C@]12CC[C@H](O)CC1=CC[C@@H]1[C@@H]2CC[C@]2(C)C(=O)CC[C@@H]12 [dehydroepiandrosterone]
EC50 ([1]; read-out: EC50): 14.9 µM

C[C@]12CCC(=O)C=C1CC[C@@H]1[C@@H]2CC[C@@]2(C)[C@H]1CC[C@]2(O)C(=O)CO [cortexolone]
threshold [2]: cortisol and corticosterone showed lower potency than their metabolic intermediates, deoxycorticosterone and cortexolone, respectively

C[C@]12CC[C@H]3[C@@H](CCC4=CC(=O)CC[C@@]43C)[C@@H]1CC[C@@H]2C(=O)CO [deoxycorticosterone]
threshold [2]: cortisol and corticosterone showed lower potency than their metabolic intermediates, deoxycorticosterone and cortexolone, respectively

CC(=O)[C@H]1CC[C@H]2[C@@H]3CCC4=CC(=O)CC[C@]4(C)[C@H]3CC[C@]12C [progesterone]
EC50 ([1]; read-out: EC50): 7.9 µM
